Results on 20 compounds are retold here after patent publication US9181239B2, “Pyridopyrimidinone inhibitors of kinases” (AbbVie Inc., priority 2011, dated 2015).

Each structure is given as a SMILES string.

This experiment deals with T1, Wee1 kinase (Homo sapiens, UniProt P30291).
T1 construct: purchased Carnabio 05-177
T1 sequence (P30291 whole entry): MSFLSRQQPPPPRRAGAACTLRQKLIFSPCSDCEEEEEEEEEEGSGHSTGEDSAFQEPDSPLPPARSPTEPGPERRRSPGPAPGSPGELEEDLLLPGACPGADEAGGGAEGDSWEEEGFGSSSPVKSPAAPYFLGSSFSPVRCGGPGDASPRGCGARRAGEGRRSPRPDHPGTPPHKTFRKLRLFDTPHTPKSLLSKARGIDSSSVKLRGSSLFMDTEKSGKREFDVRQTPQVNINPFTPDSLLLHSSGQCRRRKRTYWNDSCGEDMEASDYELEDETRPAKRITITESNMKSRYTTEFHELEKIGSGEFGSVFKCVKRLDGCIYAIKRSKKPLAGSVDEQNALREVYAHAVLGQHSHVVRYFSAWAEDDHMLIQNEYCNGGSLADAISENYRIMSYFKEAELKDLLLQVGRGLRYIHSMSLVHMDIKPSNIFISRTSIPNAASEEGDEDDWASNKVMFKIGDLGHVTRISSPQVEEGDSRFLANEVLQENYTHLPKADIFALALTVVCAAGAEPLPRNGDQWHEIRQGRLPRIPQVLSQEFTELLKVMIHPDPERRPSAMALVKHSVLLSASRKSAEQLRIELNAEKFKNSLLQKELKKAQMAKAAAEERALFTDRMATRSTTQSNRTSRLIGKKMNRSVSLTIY
Briefly: Wee1 time-resolved fluorescence equilibrium binding assay (probe displacement). To be noted: GST-tagged-Wee1 kinase 2 nM, fluorescent probe 300 nM, 1 hour incubation; read-out: Wee-1 binding (Ki nM). Here is the method: Wee1 kinase was assayed using a time-resolved fluorescence equilibrium binding assay monitoring displacement of a rapidly reversible Oregon Green-labeled ATP-competitive kinase probe (N-(2-(2-(2-(4-(4-(5-chloro-4-(2-(1-hydroxycyclobutyl)thiazol-5-yl)-1H-pyrrolo[2,3-b]pyridin-2-yl)phenyl)piperazin-1-yl)ethoxy)ethoxy)ethyl)-2′,7′-difluoro-3′,6′-dihydroxy-3-oxo-3H-spiro[isobenzofuran-1,9′-xanthene]-5-carboxamide) by competitive Wee1 inhibitors.
For the compound `CN1CCN(c2ccc(Nc3ncc4c(=O)c(-c5c(Cl)cccc5Cl)cn(C(C)(C)C)c4n3)cc2)CC1` [Example 28, 8-tert-butyl-6-(2,6-dichlorophenyl)-2-{[4-(4-methylpiperazin-1-yl)phenyl]amino}pyrido[2,3-d]pyrimidin-5(8H)-one], the Ki is 19 nM. In the case of `CCn1cc(-c2c(Cl)cccc2Cl)c(=O)c2cnc(Nc3ccc4c(c3)CN(C)CC43CC3)nc21` [Example 32, 6-(2,6-dichlorophenyl)-8-ethyl-2-[(2′-methyl-2′,3′-dihydro-1′H-spiro[cyclopropane-1,4′-isoquinolin]-7′-yl)amino]pyrido[2,3-d]pyrimidin-5(8H)-one], the Ki came out at 0.3 nM. `Cc1cc(Nc2ncc3c(=O)c(-c4c(Cl)cccc4Cl)cn(C)c3n2)ccc1N1CCCN(C)CC1` [Example 19, 6-(2,6-dichlorophenyl)-8-methyl-2-{[3-methyl-4-(4-methyl-1,4-diazepan-1-yl)phenyl]amino}pyrido[2,3-d]pyrimidin-5(8H)-one]: the Ki was found to be 0.3 nM. On to `CN1Cc2cc(Nc3ncc4c(=O)c(-c5c(F)cccc5Cl)c[nH]c4n3)ccc2C2(CC2)C1` [Example 39, 6-(2-chloro-6-fluorophenyl)-2-[(2′-methyl-2′,3′-dihydro-1′H-spiro[cyclopropane-1,4′-isoquinolin]-7′-yl)amino]pyrido[2,3-d]pyrimidin-5(8H)-one], for which the Ki came out at 0.7 nM. With `CN1CCN(c2ccc(Nc3ncc4c(=O)c(-c5ccccc5Cl)cn(C)c4n3)cc2)CC1` [Example 5, 6-(2-chlorophenyl)-8-methyl-2-{[4-(4-methylpiperazin-1-yl)phenyl]amino}pyrido[2,3-d]pyrimidin-5(8H)-one] the figure was 3.7 nM; with `Cn1cc(-c2c(Cl)cccc2Cl)c(=O)c2cnc(Nc3ccc4c(c3)CNCC4)nc21` [Example 51, 6-(2,6-dichlorophenyl)-8-methyl-2-(1,2,3,4-tetrahydroisoquinolin-7-ylamino)pyrido[2,3-d]pyrimidin-5(8H)-one], 0.4 nM; with `CN1CCN(c2ccc(Nc3ncc4c(=O)c(-c5c(Cl)cccc5Cl)cn(Cc5ccncc5)c4n3)cc2)CC1` [Example 12, 6-(2,6-dichlorophenyl)-2-{[4-(4-methylpiperazin-1-yl)phenyl]amino}-8-(pyridin-4-ylmethyl)pyrido[2,3-d]pyrimidin-5(8H)-one], 14 nM. With `Cn1cc(-c2c(Cl)cccc2Cl)c(=O)c2cnc(N)nc21` [Example 45, 2-amino-6-(2,6-dichlorophenyl)-8-methylpyrido[2,3-d]pyrimidin-5(8H)-one] the figure was 180 nM; with `Cn1cc(-c2c(Cl)cccc2Cl)c(=O)c2cnc(Nc3ccc(NC4CCNCC4)cc3)nc21` [Example 66, 6-(2,6-dichlorophenyl)-8-methyl-2-{[4-(piperidin-4-ylamino)phenyl]amino}pyrido[2,3-d]pyrimidin-5(8H)-one], 0.4 nM.

As for `CN1CCN(c2ccc(Nc3ncc4c(=O)c(-c5c(Cl)cccc5Cl)cn(C5CCC5)c4n3)cc2)CC1` [Example 15, 8-cyclobutyl-6-(2,6-dichlorophenyl)-2-{[4-(4-methylpiperazin-1-yl)phenyl]amino}pyrido[2,3-d]pyrimidin-5(8H)-one], the Ki is 0.6 nM. In the case of `CC(C)n1cc(-c2c(Cl)cccc2Cl)c(=O)c2cnc(Nc3ccc(N4CCN(C)CC4)cc3)nc21` [Example 26, 6-(2,6-dichlorophenyl)-2-{[4-(4-methylpiperazin-1-yl)phenyl]amino}-8-(propan-2-yl)pyrido[2,3-d]pyrimidin-5(8H)-one], the Ki amounted to 1.2 nM. Regarding `COc1ccc(Cn2cc(-c3c(F)cccc3Cl)c(=O)c3cnc(Nc4ccc5c(c4)CN(C)CC54CC4)nc32)cc1` [Example 36, 6-(2-chloro-6-fluorophenyl)-8-(4-methoxybenzyl)-2-[(2′-methyl-2′,3′-dihydro-1′H-spiro[cyclopropane-1,4′-isoquinolin]-7′-yl)amino]pyrido[2,3-d]pyrimidin-5(8H)-one], the Ki turned out to be 33 nM. In the case of `CN1CCc2cc(Nc3ncc4c(=O)c(-c5c(Cl)cccc5Cl)cn(C)c4n3)ccc2C1` [Example 54, 6-(2,6-dichlorophenyl)-8-methyl-2-[(2-methyl-1,2,3,4-tetrahydroisoquinolin-6-yl)amino]pyrido[2,3-d]pyrimidin-5(8H)-one], the Ki came out at 0.3 nM. Under `Cn1cc(-c2c(Cl)cccc2Cl)c(=O)c2cnc(Nc3ccc(N4CCOCC4)cc3)nc21` [Example 48, 6-(2,6-dichlorophenyl)-8-methyl-2-{[4-(morpholin-4-yl)phenyl]amino}pyrido[2,3-d]pyrimidin-5(8H)-one] stands 1.7 nM. Regarding `CN1Cc2cc(Nc3ncc4c(=O)c(-c5c(Cl)cccc5Cl)cn(C)c4n3)ccc2C1(C)C` [Example 60, 6-(2,6-dichlorophenyl)-8-methyl-2-[(1,1,2-trimethyl-2,3-dihydro-1H-isoindol-5-yl)amino]pyrido[2,3-d]pyrimidin-5(8H)-one], the Ki came to 0.2 nM. For the compound `CN1Cc2cc(Nc3ncc4c(=O)c(-c5c(Cl)cccc5Cl)cn(C)c4n3)ccc2C(C)(C)C1` [Example 20, 6-(2,6-dichlorophenyl)-8-methyl-2-[(2,4,4-trimethyl-1,2,3,4-tetrahydroisoquinolin-7-yl)amino]pyrido[2,3-d]pyrimidin-5(8H)-one], the Ki worked out at 0.3 nM.

Turning to `CN1CCC(c2ccc(Nc3ncc4c(=O)c(-c5c(Cl)cccc5Cl)cn(C)c4n3)cc2)CC1` [Example 50, 6-(2,6-dichlorophenyl)-8-methyl-2-{[4-(1-methylpiperidin-4-yl)phenyl]amino}pyrido[2,3-d]pyrimidin-5(8H)-one], the Ki amounted to 0.9 nM.

As for `Cn1cc(-c2c(Cl)cccc2Cl)c(=O)c2cnc(Nc3ccc(N[C@@H]4CCNC4)cc3)nc21` [Example 63, 6-(2,6-dichlorophenyl)-8-methyl-2-({4-[(3R)-pyrrolidin-3-ylamino]phenyl}amino)pyrido[2,3-d]pyrimidin-5(8H)-one], the Ki turned out to be 0.7 nM. In the case of `Cn1cc(-c2c(Cl)cccc2Cl)c(=O)c2cnc(Nc3ccc(N[C@H]4CCNC4)cc3)nc21` [Example 64, 6-(2,6-dichlorophenyl)-8-methyl-2-({4-[(3S)-pyrrolidin-3-ylamino]phenyl}amino)pyrido[2,3-d]pyrimidin-5(8H)-one], the Ki worked out at 0.4 nM. For `Cn1cc(-c2c(Cl)cccc2Cl)c(=O)c2cnc(Nc3ccc4c(c3)CNCC4(C)C)nc21` [Example 47, 6-(2,6-dichlorophenyl)-2-[(4,4-dimethyl-1,2,3,4-tetrahydroisoquinolin-7-yl)amino]-8-methylpyrido[2,3-d]pyrimidin-5(8H)-one], the Ki was 0.6 nM.
